According to patent US11179398B2, “Purine derivative for use in the treatment or prevention of diseases caused by a nonsense mutation” (MUSÉUM NATIONAL D'HISTOIRE NATURELLE, priority 2016, dated 2021):
Entries after “also recorded” stand apart in the source; their conditions may differ. Where two headings read alike, the source gives them in different places. Marks after values point to notes of the source that are not given here.

Columns and labels:
[1] = system: luciferase gene carrying a UGA premature stop codon; experiment: Luciferase readthrough assay in transfected HeLa cells, UGA construct; type: cell-based, human; conditions: for correcting activity of nonsense mutations (luciferase activity): 25 μM, 24 hours; for concentration at which the molecule starts to significantly correct the nonsense mutation: dose-response 0.39 μM to 600 μM; for concentration of maximum correction effectiveness: luciferase activity
Description: The DMSO represents the negative control.

[2] = system: Salmonella typhimurium TA102; conditions: positive control, TA102, with S9, 5.00 μg/well
Protocol: (§1) The positive controls used are:
(§2) The experiments were conducted once in triplicate.

[3] = system: Salmonella typhimurium TA100; conditions: positive control
Protocol: as §1, §2

[4] = system: Salmonella typhimurium TA1535; conditions: positive control
Protocol: as §1, §2

[5] = system: Salmonella typhimurium TA1537; experiment: Compensatory mutation test on bacteria, TA1537; conditions: positive control, TA1537, with S9, 5.0 μg/well
Protocol: (§5) The test was conducted in the absence or presence of a metabolic solution called S9 mixture (S9 mixture of rat liver treated with aroclor. The concentration of the S9 fraction in the S9 mixture is of 10%).
(§6) The solvent used is dimethyl sulfoxide (DMSO), the volume containing the molecule to be tested or DMSO alone is of 25 μl per well.
(§7) For the tests conducted in the presence of the S9 mixture, 2-anthranine at 1 μg/well for the TA98, TA100 and TA1535 strains or of 5 μg/well for the TA102 or TA1537 strains.
(§8) The treatment in the absence of presence of the S9 mixture was conducted by adding it directly in the wells.

[6] = system: Salmonella typhimurium TA98; experiment: Compensatory mutation test on bacteria, TA98; conditions: positive control, TA98, with S9, 1.00 μg/well
Protocol: as §5, §6, §7, §8

L5178Y TK+/- cells [7] = experiment: In vitro test of the micronuclei; conditions: for treated/solvent ratio: positive control
Protocol: (§9) The cells used are L5178Y TK^+/− cells obtained from ATCC (American Type Culture Collection, Manassas, USA) via Biovalley (Marne-la-Vallée, France) for the induction of micronuclei.
(§10) In the test with metabolic activation, the culture medium is supplemented with 5% of the S9 mixture, thus the final concentration of S9 in the treated medium is of 2%.
(§11) The cells were treated for 24 hours in the absence of the S9 mixture or treated for 3 hours followed by 24 hours of culture without treatment when the S9 mixture was present in the culture medium.
(§12) The experiment was conducted and 1000 single-nucleus cells were analysed per culture.
(§13) The assessment of the cytotoxicity was determined by measuring the doubling of the cell population at the end of the experiment.

[8] = system: gene TP53 carrying an UAA nonsense mutation at codon 136 (Caov-3 cells); experiment: Western blot of p53 re-expression in Caov-3 cells; type: cell-based
Protocol: (§3) For the purpose of validating the above screening results, the correction of nonsense mutations was measured for endogenous genes carrying nonsense mutations in an immortalised cell line of lung cancer Calu-6 (ATCC, USA) comprising a UGA mutation in the codon 196 of the gene TP53 (FIG. 2A), an immortalised cell line Caco-2 carrying a UAG mutation at the level of codon 204 (FIG. 2B) and an immortalised cell line Caov-3 carrying a UAA nonsense mutation at the level of codon 136 (FIG. 2C).
(§4) The proteins are extracted from the cell in a lysis buffer, then analysed by SDS-PAGE gel at 10% as previously described in Gonzalez-Hilarion et al. (2012). Briefly, after migration, the proteins are transferred onto a nitrocellulose membrane and placed in the presence of an anti-p53 antibody (D01; Santa-Cruz), and then of a secondary anti-mouse antibody (Jackson Immuno Research).

[9] = system: NMD (mRNA p53 in Calu-6 cells); experiment: NMD inhibition: RT-PCR of p53 mRNA carrying a UGA nonsense mutation; type: cell-based; conditions: 6.25 μM, 25 μM, 24 hours
Description: The RNAs were purified with RNazol (MRC) and underwent a RT-PCR as described in Gonzalez-Hilarion et al. (2012). The resulting cDNA were then amplified after 35 cycles of PCR using the p53 sense primer (5′-[…]-3′; SEQ ID NO: 1), antisense p53 (5′-[…]-3′; SEQ ID NO: 2), sense GAPDH (5′-[…]-3′; SEQ ID NO: 3), antisense GAPDH (5′-[…]-3′; SEQ ID NO: 4).

L5178Y TK+/- cells [10] = conditions: mouse
Protocol: as §9, §10, §11, §12, §13

[11] = system: luciferase gene carrying a UAA premature stop codon; experiment: Luciferase readthrough assay in transfected HeLa cells, UAA construct; conditions: 25 μM
Description: (§14) The position of the premature stop codon is such that if the protein synthesis stops at the premature stop codon, the synthesised truncated luciferase protein is not functional.

Calu-6 cells [12] = experiment: Phenotype of culture cells under white light microscope; type: cell-based
[13] = system: luciferase gene carrying a premature UGA stop codon; experiment: Synergy with clitocin, luciferase UGA readthrough assay in HeLa cells; type: cell-based, human; conditions: DAP alone at 25 μM
Protocol: The luciferase activity is measured by adding the SteadyLite plus substrate (Perkin Elmer) to the culture medium and the plates are read with a Tristar luminometer (Berthold). The plate is read twice.

Calu-6 cells [14] = experiment: Cellular growth and apoptosis measurement; type: cell-based
Protocol: Briefly, the cells are removed from their support using typisin and centrifuged for 5 minutes at 200 g.

[15] = system: gene TP53 carrying an UAG mutation at codon 204 (Caco-2 cells); experiment: Western blot of p53 re-expression in Caco-2 cells; type: cell-based
Protocol: as §3, §4

[16] = system: gene TP53 carrying an UGA nonsense mutation at codon 196 (Calu-6 cells); experiment: Western blot of p53 re-expression in Calu-6 cells; type: cell-based
Protocol: as §3, §4

[17] = system: luciferase gene carrying a UAG premature stop codon; experiment: Luciferase readthrough assay in transfected HeLa cells, UAG construct; conditions: 25 μM
Description: as §14

[18] = system: p53 target genes p21 and Noxa in Calu-6 cells; experiment: Expression of p53 target genes p21 and Noxa by RT-PCR; type: cell-based; conditions: 20 hours
Description: The RNAs were purified with RNazol (MRC) and underwent a RT-PCR as described in Gonzalez-Hilarion et al. (2012). The resulting cDNA were then amplified after 35 cycles of PCR using the p21 mRNA primers (sense: 5′-[…]-3′; SEQ ID NO: 5; antisense 5′-[…]-3′; SEQ ID NO: 6); GADD45 mRNA (sense: 5′-[…]-3′; SEQ ID NO: 7; antisense 5′-[…]-3′; SEQ ID NO: 8); NOXA mRNA (sense: 5′-[…]-3′; SEQ ID NO: 9; antisense 5′-[…]-3′; SEQ ID NO: 10).

[19] = TA1535, without S9, 0.5 μg/well

## Sc1ncc2[nH]cnc2n1 [2-mercaptopurine]
[1]; HeLa cells
  correcting activity of nonsense mutations (luciferase activity): do not have a correcting activity; also recorded: no correction activity

## Nc1ccc2cc3ccccc3cc2c1 [2AM, 2-anthramine]
[2]
  average number of revertants per well: 91.0
  treated/solvent ratio: 2.0
[3]; TA100, with S9, 1.0 μg/well
  average number of revertants per well: 696.0
  treated/solvent ratio: 17.4
[4]; TA1535, with S9, 1.0 μg/well
  average number of revertants per well: 137.7
  treated/solvent ratio: 41.3
[5]
  average number of revertants per well: 36.0
  treated/solvent ratio: 13.5
[6]
  average number of revertants per well: 686.7
  treated/solvent ratio: 98.1

## Sc1ncnc2nc[nH]c12 [6-mercaptopurine]
[1]; HeLa cells
  correcting activity of nonsense mutations (luciferase activity): do not have a correcting activity; also recorded: no correction activity

## O=P1(N(CCCl)CCCl)NCCCO1 (stereo not drawn) [CPA, cyclophosphamide, reference compound]
L5178Y TK+/- cells [7]; with S9 mix, 6 μg/mL
  treated/solvent ratio: 60.0 **

## Nc1nc(N)c2nc[nH]c2n1 [DAP, 2,6-diaminopurine]
[8]
  re-expression of protein p53: does not make it possible to re-express the protein p53
[9]
  inhibition of NMD (stabilising an mRNA carrying a premature stop codon): not an NMD inhibitor
L5178Y TK+/- cells [10]; 3 h, 0.01 nM
  DP (% of the control substance): 76 % of the control substance
L5178Y TK+/- cells [10]; 3 h, 0.02 nM
  DP (% of the control substance): 89 % of the control substance
L5178Y TK+/- cells [10]; 3 h, 0.04 nM
  DP (% of the control substance): 91 % of the control substance
L5178Y TK+/- cells [10]; 3 h, 0.07 nM
  DP (% of the control substance): 74 % of the control substance
L5178Y TK+/- cells [10]; 3 h, 0.29 nM
  DP (% of the control substance): 73 % of the control substance
L5178Y TK+/- cells [10]; 3 h, 0.58 nM
  DP (% of the control substance): 54 % of the control substance
L5178Y TK+/- cells [10]; 3 h, 2.33 nM
  DP (% of the control substance): 44 % of the control substance
L5178Y TK+/- cells [10]; 3 h, 4.66 nM
  DP (% of the control substance): 40 % of the control substance
L5178Y TK+/- cells [10]; 24 h
  reduction of the doubling of the population: 79-100%
L5178Y TK+/- cells [10]; 24 h, 0.01 nM
  DP (% of the control substance): 91 % of the control substance
L5178Y TK+/- cells [10]; 24 h, 0.02 nM
  DP (% of the control substance): 121 % of the control substance
L5178Y TK+/- cells [10]; 24 h, 0.04 nM
  DP (% of the control substance): 78 % of the control substance
L5178Y TK+/- cells [10]; 24 h, 0.07 nM
  DP (% of the control substance): 97 % of the control substance
[11]
  effect on the UAA codon (luciferase activity): no effect
Calu-6 cells [12]
  concentration from which more dying cells (round appearance) are observed: ≥ 600 µM
[13]
  luminescence measured: 50,000
Calu-6 cells [14]; DAP 6.25 μM or 25 μM, D4 to D10
  percentage of apoptotic cells: ≤ 15%
[15]
  re-expression of protein p53: does not make it possible to re-express the protein
L5178Y TK+/- cells [7]; in the absence of the S9 mixture, 24 hours
  doses with severe cytotoxicity: greater than 0.15 mM
L5178Y TK+/- cells [7]; in the presence of the S9 mixture, 3 hours + 24 hours
  doses with slight cytotoxicity: greater than 0.07 mM
L5178Y TK+/- cells [7]; in the presence or absence of the S9 mixture, listed as 2,6-DAP
  genotoxic effect (frequency of cells containing micronuclei): no genotoxic effect; also recorded: does not induce any damage to the chromosomes or cell machinery involved in the cell division
[16]; 25 μM of DAP versus G418 600 μM
  synthesis of readthrough protein: greater than with G418
[16]; Calu-6 cells, 20 hours, Western blot
  minimal concentration at which wild-size protein p53 (p53 FL) is detected: 6.25 µM
[16]; Calu-6 cells, Western blot
  concentration of maximum production of p53 FL: 25 µM
[1]; HeLa cells
  correcting activity of nonsense mutations (luciferase activity): able to correct the UGA stop codons much more effectively than G418 or ataluren
  concentration of maximum correction effectiveness: 100 µM
[1]; DAP at 25 μM, HeLa cells
  correction of the nonsense UGA mutation (luciferase activity) compared with G418 at 25 μM: eighteen times more effective
  correction of the nonsense UGA mutation (luciferase activity) compared with G418 at 2400 μM: more than three times more effective
[1]; Homo sapiens, HeLa
  EC50: 54 µM
[1]; both at 6.25 μM
  correction of the UGA nonsense mutation compared with G418: five times higher
[1]
  concentration at which the molecule starts to significantly correct the nonsense mutation: 6.25 µM
[17]
  effect on the UAG codon (luciferase activity): no effect
[18]
  concentration from which the expression of the target genes of p53 increases: ≥ 6.25 µM

## CN[C@@H]1[C@@H](O)[C@@H](O[C@@H]2[C@@H](O)[C@H](O[C@H]3O[C@H]([C@@H](C)O)[C@@H](O)[C@H](O)[C@H]3N)[C@@H](N)C[C@H]2N)OC[C@]1(C)O [G418]
Calu-6 cells [14]; G418 600 μM, from the 4th day of culture
  percentage of apoptotic cells: > 30%
[1]
  concentration at which the molecule starts to significantly correct the nonsense mutation: 6.25 µM
[1]; HeLa cells
  concentration of maximum correction effectiveness: > 600 µM

## CO[C@@]12[C@H](COC(N)=O)C3=C(C(=O)C(C)=C(N)C3=O)N1C[C@@H]1N[C@@H]12 [MMC, mitomycin C, reference compound]
L5178Y TK+/- cells [7]; without S9 mix
  treated/solvent ratio: 100.0 **

## [N-]=[N+]=[N-] [NaN3, sodium azide]
[3]; TA100, without S9, 1.0 μg/well
  average number of revertants per well: 232.3
  treated/solvent ratio: 5.5
[4]; [19]
  average number of revertants per well: 206.7
  treated/solvent ratio: 77.5

## O=C(O)c1cccc(-c2noc(-c3ccccc3F)n2)c1 [ataluren]
[1]; HeLa cells
  correcting activity of nonsense mutations (luciferase activity): ineffective; also recorded: no correction activity
